Source: publication PMC12040169 (PLOS Biology, 2025)

Experiments:
[1] = test system: T1, C. trachomatis L2/434/Bu expressing GFP (CTL2-GFP); assay: microbe, parasite or virus in culture; design: C. trachomatis total inclusion area by high-content imaging, normalised to DMSO; conditions: Chlamydia trachomatis, HeLa, 28.5 h; total inclusion area; read-out: % of control remaining
T1 construct: L2/434/Bu GFP intracellular growth in HeLa cells
In short: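 Infected cells treated with library compounds were read for bulk GFP (chlamydial growth) and resorufin fluorescence (host viability), then fixed, Hoechst-stained and imaged. Inclusion area and number from GFP, plus nuclei counts, served as additional growth and viability proxies; MICs derived as previously described.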

[2] = test system: T2, CTL2-GFP (C. trachomatis L2/434/Bu, GFP-expressing); assay: microbe, parasite or virus in culture; design: Intracellular C. trachomatis growth in HeLa cells, bulk GFP fluorescence relative to DMSO; conditions: Chlamydia trachomatis, HeLa, 28.5 h; bulk GFP, mean of 2; read-out: % of control remaining
T2 construct: L2/434/Bu, GFP-expressing
Protocol: MICs were calculated as described above.

in vitro [3] = assay: in vitro; design: Viability of infected HeLa host cells, resazurin conversion, bulk resorufin fluorescence relative to DMSO; conditions: human, hela cells; bulk resorufin, mean of 2
in vitro [4] = conditions: human, hela cells, % viability

| SMILES | activity at 1 µM [1] [%] | activity at 5 µM [1] [%] | activity at 10 µM [1] [%] | activity at 1 µM [2] [%] | activity at 5 µM [2] [%] | activity at 10 µM [2] [%] | viability at 28.5 h, 1 µM (in vitro [3]) [%] | viability at 28.5 h, 5 µM (in vitro [3]) [%] | viability at 28.5 h, 10 µM (in vitro [3]) [%] | viability at 28.5 h, 10 µM (in vitro [4]) [%] |
| --- | --- | --- | --- | --- | --- | --- | --- | --- | --- | --- |
| Cc1cc2nc(-c3ccccn3)[nH]c2cc1C [CBK000122] | 97.4 | 31 | 9.06 | 129 | 36.8 | 14.3 | 94.7 | 90.3 | 89.1 | 119 |
| NCc1ccc2cccc(O)c2n1 [CBK001376T] | 66.3 | 31.4 | 6.97 | 80.5 | 19.7 | 1.06 | 109 | 112 | 110 | 85.6 |
| Cc1ccc(C(=O)NC2CCCC2)cc1[N+](=O)[O-] [CBK001993] | 116 | 89.8 | 50.4 | 123 | 123 | 110 | 112 | 110 | 104 | 102 |
| CC(C)(CN)CN(Cc1ccc(-c2ccccc2)cc1)C(=O)Nc1ccccc1C(C)(C)C [CBK002476C] | 114 | 50.1 | 2.01 | 98.7 | 75.3 | 16.4 | 118 | 114 | 63.6 | 94.2 |
| Fc1cccc(F)c1OCCOc1nc(N2CCNCC2)ccc1C(F)(F)F [CBK003977A] | 53.4 | 9.38 | 1.96 | 86.2 | 37.8 | 27.8 | 92.3 | 90.5 | 89.4 | 87 |
| CCOc1ccc(OCC)c2c1n(C)c(SC)[n+]2C [CBK005720G] | 97.5 | 27.2 | 3.38 | 139 | 64.8 | 9.96 | 90.5 | 86.2 | 83.6 | 92.1 |
| Cc1nc(C(=N)N)nc2ccccc12 [CBK010368C] | 60.8 | 35.9 | 41.3 | 94.1 | 66.1 | 65.1 | 98.3 | 94.3 | 88.2 | 86.3 |
| O=C(Nc1cccc2c(NC(=O)N3CCCCC3)cccc12)N1CCCCC1 [CBK010775] | 97.8 | 43.6 | 23.8 | 130 | 67.1 | 38.3 | 89.2 | 88.8 | 84.5 | 109 |
| COc1cc(N)c2ncccc2c1 [CBK011972C] | 85 | 10.9 | 1.09 | 90.6 | 23.4 | 7.94 | 101 | 81.1 | 80 | 77.7 |
| CC(=O)c1cc(-c2cccnc2)cs1 [CBK017637] | 86.9 | 83.4 | 98.2 | 140 | 120 | 123 | 113 | 110 | 110 | 82.4 |
| CC(=O)NC[C@H]1CN(c2ccc(-c3nnc(CCC#N)s3)c(F)c2)C(=O)O1 [CBK017926] | 15.4 | 0.206 | 0.193 | 19.4 | 2.09 | 3.05 | 93.8 | 92 | 95.7 | 87.1 |
| CC(=O)NC[C@H]1CN(c2ccc(-c3nnc([C@@H](C)N)s3)c(F)c2)C(=O)O1 [CBK017966] | 84.6 | 5.78 | 2.78 | 90.2 | 10 | 3.77 | 92.5 | 87.1 | 89.3 | 93.2 |
| CCn1c2c(c3cc(S(=O)(=O)c4ccc(C(F)(F)F)cc4)ccc31)CCNCC2 [CBK018453C] | 133 | 58.6 | 12.8 | 143 | 54.5 | 5.22 | 94.5 | 89.4 | 91.9 | 97.5 |
| O=C(Nc1ccc(OC(F)(F)F)cc1)Nc1cc(-c2cccs2)n[nH]1 [CBK020563] | 96.5 | 24 | 10.2 | 100 | 13.4 | 4.7 | 113 | 110 | 117 | 82.5 |
| COc1ccc([C@@]23CC[C@@H](Nc4nc(-c5ccc(Br)cc5)cs4)C[C@@H]2N(C)CC3)cc1OC [CBK036543] | 76.2 | 68.6 | 45.2 | 138 | 104 | 94.2 | 91.3 | 91 | 109 | 87.7 |
| O=C(Nc1cc(Cl)nc(Cl)c1)N(Cc1ccc2ccccc2c1)CC1CCNCC1 [CBK049773] | 120 | 75.2 | 44.5 | 131 | 84.2 | 61.7 | 95.5 | 95.6 | 96.4 | 105 |
| O=C(Nc1cc(Cl)nc(Cl)c1)N(Cc1ccc(-c2ccccc2)cc1)CC1CCNCC1 [CBK049794] | 62.1 | 41.7 | 25.8 | 115 | 90.8 | 90.8 | 95.2 | 100 | 97.9 | 82.6 |
| C[C@H](NC(=O)Cc1ccc(-c2ccccc2)cc1)c1nc2ccccc2[nH]1 [CBK296998] | 110 | 35.8 | 30.7 | 153 | 142 | 185 | 89.7 | 97.4 | 100 |  |
| O=C(O)c1cn(C2CC2)c2cc(N3CCN(C(=O)Cc4ccccc4Cl)CC3)c(F)cc2c1=O [CBK297136] | 145 | 74.4 | 16.8 | 153 | 90.9 | 28.4 | 88.5 | 89.1 | 93.4 |  |
| COc1cc(C=C2SC(NCC(=O)O)=NC2=O)ccc1OCc1ccc(Cl)cc1Cl [CBK297555] | 110 | 86.9 | 44 | 135 | 155 | 200 | 88.5 | 92.1 | 88.9 |  |
| Cn1nnnc1-c1cccc(NC(=O)c2ccc(Oc3ccccc3)cc2)c1 [CBK297872] | 118 | 74.5 | 30.8 | 124 | 73.3 | 27.8 | 95.1 | 88.4 | 89.1 |  |
| CC(Cc1nc(-c2nccn2C(C)C)cs1)n1cc(Cl)cn1 (centres unmarked) [CBK304251] | 109 | 55.7 | 28.6 | 125 | 70.4 | 46.9 | 90.7 | 96.5 | 92.9 |  |
| Cc1cccc(OCC(C)NC(=O)NCCc2cnn(C)c2)c1 (centres unmarked) [CBK304887] | 120 | 47.6 | 19.4 | 115 | 43.5 | 16.5 | 100 | 98.5 | 89.3 |  |
| COCCNc1nc2c(c(N3CCCCCC3)n1)CCNCC2 [CBK306724] | 79.4 | 0.64 | 0.424 | 76 | 7.81 | 4.81 | 98 | 97.9 | 92.9 |  |
